Experimental data from PubChem BioAssay (NCI).
Several values for one entry are separate records, joined by “and”; a condition that tells them apart may be missing. Equal values may be shown once.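 Method: 48-hour compound exposure of cells in 96-well plates, five concentrations, linear interpolation of endpoints. GI50 = concentration required for 50% inhibition of growth. TGI marks complete inhibition of growth.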

Key:
Assay in all cases: growth of human tumour cells (NCI), 48 h
SR leukemia = tested on: SR leukemia
MDA-MB-435 = tested on: MDA-MB-435
CAKI-1 renal = tested on: CAKI-1 renal
OVCAR-8 ovarian = tested on: OVCAR-8 ovarian
EKVX NSCLC = tested on: EKVX NSCLC
SF-539 CNS = tested on: SF-539 CNS
SN12C renal = tested on: SN12C renal
RXF 393 renal = tested on: RXF 393 renal
CCRF-CEM leukemia = tested on: CCRF-CEM leukemia
A498 renal = tested on: A498 renal

Row | Structure (SMILES) | GI50 (SR leukemia) | TGI (SR leukemia) | GI50 (MDA-MB-435) | TGI (MDA-MB-435) | GI50 (CAKI-1 renal) [µM] | TGI (CAKI-1 renal) | GI50 (OVCAR-8 ovarian) | TGI (OVCAR-8 ovarian) | GI50 (EKVX NSCLC) | TGI (EKVX NSCLC) | GI50 (SF-539 CNS) | TGI (SF-539 CNS) | GI50 (SN12C renal) | TGI (SN12C renal) [µM] | GI50 (RXF 393 renal) | TGI (RXF 393 renal) | TGI (CCRF-CEM leukemia) [µM] | GI50 (A498 renal) | TGI (A498 renal) | GI50 (CCRF-CEM leukemia)
1 | Clc1ccccc1C(c1ccccc1)(c1ccccc1)n1ccnc1 | 1.86 µM | 6.93 µM | 2.4 µM | 10.1 µM and 47.4 µM | 2.34 | 15.3 µM and 50.5 µM | 2.69 µM | 20 µM and 26.3 µM | 2.41 µM | 13.7 µM and 23.7 µM | 3.22 µM | 11.1 µM | 2.63 µM | 13.3 | 2.89 µM | 9.28 µM and 42.1 µM | 31.4 | 2.15 µM | 6.02 µM and 43.8 µM | –
2 | COc1ccc(C(=S)N2CCN(c3cccc(Cl)c3)CC2)cc1 | > 100 µM | > 100 µM | 62 µM | > 100 µM | > 100 | > 100 µM | > 100 µM | > 100 µM | 91.7 µM | > 100 µM | > 100 µM | > 100 µM | > 100 µM | > 100 | > 100 µM | > 100 µM | > 100 | > 100 µM | > 100 µM | > 100 µM
3 | Cc1ccn2c3c(c(C(=O)O)c2c1)C(=O)c1ccccc1C3=O | > 30.5 µM | > 100 µM | 1.57 µM | 3.05 µM | > 100 | > 100 µM | > 100 µM | > 100 µM | 48 µM | > 100 µM | 4.46 µM | 64.7 µM | 7.97 µM | > 100 | 10.4 µM | > 100 µM | > 100 | 5.01 µM | 40.5 µM | > 100 µM
4 | O=C(CCN1CCN(c2cnc3ccccc3n2)CC1)c1csc2ccccc12 | 36.1 µM | > 100 µM | > 100 µM | > 100 µM | 18.9 | 35.8 µM | > 100 µM | > 100 µM | 36 µM | > 100 µM | 29.3 µM | 77.9 µM | 79.6 µM | > 100 | 18.7 µM | 49.5 µM | > 100 | 47.4 µM | > 100 µM | 19.2 µM
5 | CCn1c(-c2nonc2N)nc2c(C#CCN)ncc(OCCCN)c21 | > 25 µM | > 25 µM | > 25 µM | > 25 µM | > 25 | > 25 µM | > 25 µM | > 25 µM | > 25 µM | > 25 µM | > 25 µM | > 25 µM | > 25 µM | > 25 | > 25 µM | > 25 µM | > 25 | > 18.6 µM | > 25 µM | > 25 µM
6 | COc1ccc(-c2nn(-c3cccc(Cl)c3)cc2C2CC(c3ccccc3)=NN2C(C)=O)cc1 (centres undefined) | 8.98 µM | > 100 µM | > 100 µM | > 100 µM | 6.54 | > 100 µM | 4.75 µM | > 100 µM | 8.75 µM | > 100 µM | 5.4 µM | 58.7 µM | 8.35 µM | > 100 | 6.49 µM | 30.8 µM | > 100 | 3.33 µM | 50.4 µM | > 100 µM
7 | COc1ccc(NC(=O)Nc2n[nH]c3ccccc23)cc1 | > 100 µM | > 100 µM | > 100 µM | > 100 µM | > 100 | > 100 µM | > 100 µM | > 100 µM | > 100 µM | > 100 µM | > 100 µM | > 100 µM | > 100 µM | > 100 | > 100 µM | > 100 µM | > 100 | > 100 µM | > 100 µM | 5.96 µM
8 | COc1cccc(/C=C/C(=O)c2cc3c(N)c(C(=O)Nc4ccccc4C)sc3nc2C)c1 | 1.09 µM | 4.2 µM | 1.07 µM | 2.77 µM | 1.66 | 5.75 µM | 1.26 µM | > 50 µM | 1.84 µM | 10.8 µM | 1.13 µM | 2.91 µM | 0.953 µM | 2.13 | 0.768 µM | 1.53 µM | > 50 | 0.989 µM | 4.4 µM | 1.33 µM
9 | CC(C)(C)OC(=O)NC(Cc1ccccc1)C(=O)OCN1C(=O)C2C3C=CC(C2C1=O)C1C2C(=O)N(COC(=O)C(Cc4ccccc4)NC(=O)OC(C)(C)C)C(=O)C2C31 (centres undefined) | – | 4.06 µM | – | > 100 µM | – | > 100 µM | – | > 100 µM | – | > 100 µM | – | > 100 µM | – | > 100 | – | > 64.2 µM | > 68.5 | – | > 90.9 µM | –
10 | CC(=O)Nc1cccc(-n2c(=O)n(C3CC3)c(=O)c3c(Nc4ccc(I)cc4F)n(C)c(=O)c(C)c32)c1 | 3.65 µM and > 10 µM | 45.6 µM and > 10 µM | < 0.01 µM and 0.00313 µM | 25 µM and > 10 µM | 0.203 | > 46.5 µM | 4.22 µM and > 6.71 µM | > 49.6 µM | 0.0135 µM and 0.0443 µM | > 71 µM | 1.15 µM and > 3.69 µM | 22.1 µM and > 10 µM | 2.39 µM and > 2.41 µM | > 100 | 0.0661 µM and 0.148 µM | 13.1 µM and > 5.97 µM | > 100 | < 0.01 µM and 0.00596 µM | < 0.0306 µM and 0.0672 µM | 9.15 µM and > 10 µM
11 | COc1cc(-n2cc(-c3ccc(Cl)c(Cl)c3)nc2SCc2ccccc2)cc(OC)c1OC | > 100 µM | > 100 µM | > 100 µM | > 100 µM | > 100 | > 100 µM | > 100 µM | > 100 µM | > 100 µM | > 100 µM | > 100 µM | > 100 µM | > 100 µM | > 100 | 92.5 µM | > 100 µM | > 100 | > 100 µM | > 100 µM | > 100 µM
12 | CC(C)(C)c1cc(O)c(O)c(C(C)(C)C)c1 | 2.38 µM | 6.64 µM | 3.3 µM | 14.1 µM | 2.79 | 8.63 µM | 3.48 µM | 16.4 µM | 3.76 µM | 17.5 µM | 3.47 µM | 11 µM | 4.82 µM | 21.3 | 4.4 µM | 13.5 µM | 7.49 | 6.19 µM | 19.8 µM | 2.33 µM
13 | O=C(Nc1cccc(-n2ccc3c(NC(=O)c4ccccc4)nccc32)c1)c1cccc(C(F)(F)F)c1 | 0.0284 µM | – | 0.0172 µM | 0.043 µM | 0.0556 | 3.36 µM | 0.036 µM | 2.43 µM | 0.0715 µM | > 100 µM | 0.0314 µM | 2.14 µM | 0.0591 µM | > 59.3 | 0.0187 µM | 0.0442 µM | 4.13 | 0.02 µM | 0.0772 µM | 0.0358 µM
14 | CC(=O)c1ccc(Nc2cc(-c3ccccc3)nc3c(O)cccc23)cc1 | 1.59 µM | 49.5 µM | 23.6 µM | 65.3 µM | 41.3 | > 100 µM | 19 µM | > 100 µM | 28.7 µM | > 100 µM | 21.5 µM | 68.4 µM | 24.7 µM | 58.2 | 17.4 µM | 60.3 µM | 34.6 | 25.3 µM | 71.7 µM | 5.05 µM
15 | COC(=O)C(=O)CC(=O)CCn1ncc(Cl)c(Cl)c1=O | – | 5.76 µM | 3.37 µM | 12.8 µM | – | 9.42 µM | – | 27.9 µM | – | 33.8 µM | – | 35.2 µM | – | 29.9 | – | 33.9 µM | 9.72 | – | 49.6 µM | –
16 | C[C@@H]1CC[C@@H]2[C@@H]1[C@H](OC(=O)/C=C/c1ccccc1)[C@]1(c3ccccc3)C[C@@H](OC(=O)CO)[C@@]2(C)O1 | 5.86 µM | 38.8 µM | 14.9 µM | 33.2 µM | 0.504 | 18.4 µM | 6.71 µM | 34.8 µM | 12.6 µM | 35.8 µM | 14.6 µM | 28.3 µM | 0.538 µM | 22.4 | 0.252 µM | 13.7 µM | 84.2 | 0.189 µM | 0.585 µM | 20.8 µM
17 | Cc1nn(-c2ccc(S(=O)(=O)[O-])cc2)c([O-])c1N=[N+](C)c1ccc(-c2ccc(N=Nc3ccc4c(S(=O)(=O)[O-])cc(S(=O)(=O)[O-])c(N)c4c3[O-])c([O-])c2)cc1[O-].[Cu+2].[Cu+2].[Na+] | > 100 µM | > 100 µM | > 100 µM | > 100 µM | > 100 | > 100 µM | > 100 µM | > 100 µM | > 100 µM | > 100 µM | > 100 µM | > 100 µM | > 100 µM | > 100 | > 100 µM | > 100 µM | > 100 | > 100 µM | > 100 µM | > 100 µM
